The values that follow come from patent publication US12168650B2, “Crystalline forms of 3-(5-(2-hydroxy-2-methylpropoxy)-6-methylpyrazin-2-yl)-1H-indole-7-carbonitrile” (NIDO BIOSCIENCES, INC., priority 2022, dated 2024).

SMILES strings stand for the structures. Values joined by “and” are separate entries in the source; they are usually repeats but may differ in a detail not shown here. Equal entries are not always repeated.

Data set [1] can be described thus: Interconversion of polymorphs (heating, dehydration, humidity, equilibration). It counts as physicochemical. An excerpt: In total, 15 forms were identified to be polymorphs or pseudo-polymorphs of the free form, including seven anhydrates, Forms A, C, H, J, K. L and O; four hydrates, Forms B, F, M and N; and three solvates, Forms D, E and I. In addition, a metastable form, Form G, and an amorphous form were also obtained.
The interconversion relation of polymorphs identified is outlined in FIG. 5.

The subject of data set [2] is LNCaP cells expressing ARR2PB-FireflyLuc and CMV-RenillaLuc. The experiment in a line: LNCaP ARR2PB-FireflyLuc reporter assay. The note with it: Homo sapiens, +/−0.5 nM DHT, 48 h at 37° C. It counts as cell-based. On the procedure: LNCaP cells expressing ARR2PB-FireflyLuc and CMV-RenillaLuc were treated with indicated concentrations of the test compound, enzalutamide (negative control), or DHT (positive control)+/−0.5 nM DHT for 48 h at 37° C. […] signals were read with the ImageXpress Micro Confocal System. Remaining activity (antagonist mode) was calculated as % Remaining Activity=100×[(Readsample−LCave)/(HCave−LCave)] where HC is cells treated with 0.5 nM DHT only and LC is cells treated with 10 uM enzalutamide+0.5 nM DHT. Activation (agonist mode) was calculated as % Activation=100×[(ReadSample−LCave)/(HCave−LCave)] where HC is cells treated with 1 uM DHT and LC is cells treated with DMSO. Dose response curves and IC50 values were calculated using non-linear regression analysis in XLfit.
On the technique in general: A reporter such as luciferase makes a cellular process visible.

Data set [3] can be described thus: Solution state chemical stability. It counts as physicochemical. The note with it: for Purity: ~10 mg/ml. On the procedure: The solution state chemical stability was carried out in acetone, MEK, and 2-MeTHF solvent systems at 50° C. and 55° C. […] The purity of the compound degraded from 99.43% to 98.27% after 48 h holding at 55° C. in MEK solvent system.
2-MeTHF/n-hep was selected as the potential solvent system for the crystallization. The solution state chemical stability was carried out in 2-MeTHF solvent systems at higher temperature (60° C. and 70° C.).

Data set [4] can be described thus: Competitive equilibration experiments of anhydrates. The note with it: at both 25° C. and 50° C.
Procedure: Relative stability of the anhydrate Forms A, C, H and J was investigated with competitive equilibration experiments.
Relative stability of the anhydrates Forms C, K and L was investigated with competitive equilibration experiments.
To determine relative stability of anhydrates, competitive equilibration experiments were conducted in different solvent systems.
About 2 mg of each anhydrate was added to 0.3-0.4 mL saturated solutions of selected solvents. Obtained suspensions were stirred at 25° C. for 3-10 days, respectively. Solid parts (wet cakes) were isolated by centrifugation filtration and investigated by XRPD.

In the case of `Cc1nc(-c2c[nH]c3c(C#N)cccc23)cnc1OCC(C)(C)O` [Form I, 3-(5-(2-hydroxy-2-methylpropoxy)-6-methylpyrazin-2-yl)-1H-indole-7-carbonitrile], in data set [1] (after heating to 140° C. by TGA and cooled to room temperature), the Form conversion entry was “converted to physical mixture of Form C, Form N and an unknown peak”.

For `Cc1nc(-c2c[nH]c3c(C#N)cccc23)cnc1OCC(C)(C)O` [Form K, 3-(5-(2-hydroxy-2-methylpropoxy)-6-methylpyrazin-2-yl)-1H-indole-7-carbonitrile], the Form conversion entry is “converts to Form L” in data set [1] (after melting and re-crystallization (DSC, VT-XRPD)); “reverts back to Form B” in data set [1] (exposure to 25° C. in 40-70% RH for 6 days); “converts to hydrate Form B” in data set [1] (exposure to 25° C./92% RH for 6 days).

Consider `Cc1nc(-c2c[nH]c3c(C#N)cccc23)cnc1OCC(C)(C)O` [Form E, 3-(5-(2-hydroxy-2-methylpropoxy)-6-methylpyrazin-2-yl)-1H-indole-7-carbonitrile], for which, in data set [1] (after heating to 100° C. by TGA and cooled to room temperature), the Form conversion entry is “converts to physical mixture of Form F and Form G”.

As to `Cc1nc(-c2c[nH]c3c(C#N)cccc23)cnc1OCC(C)(C)O` [Form D, 3-(5-(2-hydroxy-2-methylpropoxy)-6-methylpyrazin-2-yl)-1H-indole-7-carbonitrile], the Form conversion entry in data set [1] (after desolvation) was “converts to Form C”.

`Cc1nc(-c2c[nH]c3c(C#N)cccc23)cnc1OCC(C)(C)O` [3-(5-(2-hydroxy-2-methylpropoxy)-6-methylpyrazin-2-yl)-1H-indole-7-carbonitrile]: half-maximal inhibition in data set [2] (IC50) required 50 nM. Further, the Purity in data set [3] (2-MeTHF, 55° C., 0 h) was 99.35% a %; in data set [3] (2-MeTHF, 55° C., 6 h), 99.55% a %; in data set [3] (2-MeTHF, 55° C., 24 h), 99.62% a %; in data set [3] (2-MeTHF, 55° C., 48 h), 99.62% a %; in data set [3] (2-MeTHF, 60° C., 0 h) it was 99.54% a %; in data set [3] (2-MeTHF, 60° C., 24 h), 99.69% a %. Further, the Purity in data set [3] (2-MeTHF, 60° C., 48 h) was determined as 99.56% a %; in data set [3] (2-MeTHF, 70° C., 0 h), 99.53% a %; in data set [3] (2-MeTHF, 70° C., 24 h) it was 99.70% a %; in data set [3] (2-MeTHF, 70° C., 48 h), 99.44% a %; in data set [3] (2-MeTHF/n-hep = 1 v/1 v, 70° C., 0 h), 98.45% a %; in data set [3] (2-MeTHF/n-hep = 1 v/1 v, 70° C., 24 h), 98.44% a %. The Purity is 98.44% a % in data set [3] (2-MeTHF/n-hep = 1 v/1 v, 70° C., 48 h); 99.54% a % in data set [3] (Acetone, 50° C., 0 h); 99.50% a % in data set [3] (Acetone, 50° C., 6 h); 99.51% a % in data set [3] (Acetone, 50° C., 24 h); 99.69% a % in data set [3] (Acetone, 50° C., 48 h); 99.43 a % and 99.43% a % in data set [3] (MEK, 55° C., 0 h). Moreover, the Purity in data set [3] (MEK, 55° C., 6 h) is 99.23% a %; in data set [3] (MEK, 55° C., 24 h), 98.54% a %; in data set [3] (MEK, 55° C., 48 h), 98.27 a % and 98.27% a %. In addition, the “Solution state chemical stability” value in data set [3] (after 48 h holding in 2-MeTHF at 60° C. and 70° C.) is reported as “stable”; in data set [3] (after 48 h holding in 2-MeTHF/n-hep=1v/1v at 70° C.), “stable”; in data set [3] (after 48 h holding in both acetone and 2-MeTHF systems (50° C. and 55° C.)), “stable”.

As for `Cc1nc(-c2c[nH]c3c(C#N)cccc23)cnc1OCC(C)(C)O` [Form B, 3-(5-(2-hydroxy-2-methylpropoxy)-6-methylpyrazin-2-yl)-1H-indole-7-carbonitrile], the Form conversion result in data set [1] (after dehydration) is reported as “converts to Form K”.

For the molecule `Cc1nc(-c2c[nH]c3c(C#N)cccc23)cnc1OCC(C)(C)O` [amorphous form, 3-(5-(2-hydroxy-2-methylpropoxy)-6-methylpyrazin-2-yl)-1H-indole-7-carbonitrile], the Form conversion entry in data set [1] (after exposure to high humidity) was “crystallized to Form N”.

`Cc1nc(-c2c[nH]c3c(C#N)cccc23)cnc1OCC(C)(C)O` [Form A, 3-(5-(2-hydroxy-2-methylpropoxy)-6-methylpyrazin-2-yl)-1H-indole-7-carbonitrile]: the “Relative thermodynamic stability of anhydrates” value in data set [4] is listed as “converts to Form C”.

For the molecule `Cc1nc(-c2c[nH]c3c(C#N)cccc23)cnc1OCC(C)(C)O` [Form M, 3-(5-(2-hydroxy-2-methylpropoxy)-6-methylpyrazin-2-yl)-1H-indole-7-carbonitrile], the Form conversion result in data set [1] (equilibration in MeOH at 25° C. for another 1 day) is “converts to Form B”; in data set [1] (wet cake from methanol, once exposed to the air) it was “converted to Form B”.

In the case of `Cc1nc(-c2c[nH]c3c(C#N)cccc23)cnc1OCC(C)(C)O` [Form G, 3-(5-(2-hydroxy-2-methylpropoxy)-6-methylpyrazin-2-yl)-1H-indole-7-carbonitrile], the Form conversion result in data set [1] (equilibration in DMSO/water system at 25° C. for 6 days) was “converts to anhydrate Form H”.

The term IC50 denotes the concentration that inhibits the measured activity by half. Lower therefore signals higher potency.
